Consider two molecules from patent US10092535B2, “Treatment of nervous system disorders using combinations of RXR agonists and thyroid hormones” (IO Therapeutics, Inc., priority 2015, dated 2018).

In data set [1] the test system is mouse oligodendrocyte progenitor cells (OPCs). The data set can be described thus: Mouse OPC differentiation with IRX4204 and T3. In kind it is cell-based. As to conditions: 5-day treatment, 96-well plates. The procedure:
OPCs were derived from plp-EGFP expressing mice.
Therapeutic agents were tested in 96-well plates (6 wells per concentration). […] All media contained 0.1% DMSO. At the end of the 5-day treatment, cells were imaged on Cellomics in two channels and algorithms were used to count nuclei and EGFP+oligodendrocytes.

The subject of data set [2] is experimental autoimmune encephalomyelitis (EAE) in C57BL/6 (B6) mice. The data set can be described thus: EAE in B6 mice (MOG peptide), disease severity score. Type of data set: in vivo. Particulars: IRX4204 50 μg every other day from day 7 to day 20; vs vehicle. The protocol: Mice were also given 200 ng of pertussis toxin in PBS administered by inter-peritoneal (i.p.) injection on the same day as MOG emulsion injection (day 0) and 2 days later (day 2). […] Mice were scored using the following scale: 0—Mice have no disease, 1—Mice have distal limp tail or rear leg weakness (paresis), 1.5—Mice have distal limp tail and rear leg weakness, 2—Mice have complete limp tail and rear leg weakness, 2.5—Mice have complete limp tail and weakness in both rear legs, 3—Mice have complete limp tail and paralysis in both rear legs, 3.5—Mice have complete limp tail, paralysis in both rear legs, and forelimb weakness. Mice receiving a score of 3.5 were immediately euthanized.

Another data set deals with T1, RXRα (Homo sapiens, UniProt P19793).
T1 sequence (P19793 1-462): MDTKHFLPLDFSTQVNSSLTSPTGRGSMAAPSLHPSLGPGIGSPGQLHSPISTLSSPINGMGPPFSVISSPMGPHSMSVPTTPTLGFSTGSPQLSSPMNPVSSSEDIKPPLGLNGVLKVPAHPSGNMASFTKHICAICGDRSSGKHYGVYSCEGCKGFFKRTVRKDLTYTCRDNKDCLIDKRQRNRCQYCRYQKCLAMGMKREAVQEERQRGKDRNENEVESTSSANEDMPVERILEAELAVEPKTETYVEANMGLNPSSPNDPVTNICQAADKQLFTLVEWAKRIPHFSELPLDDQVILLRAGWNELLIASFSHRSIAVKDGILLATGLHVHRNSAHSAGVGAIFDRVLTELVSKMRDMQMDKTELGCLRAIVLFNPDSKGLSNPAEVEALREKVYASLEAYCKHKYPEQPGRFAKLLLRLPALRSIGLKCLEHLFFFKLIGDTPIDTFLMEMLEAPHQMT
As to conditions: transactivation assays. The procedure: To determine whether a RXR agonist can mediate its effects via RXRα receptor homodimers, RXRβ receptor homodimers, RXRγ receptor homodimers, or any combination thereof, or the corresponding RAR/RXR heterodimers, receptor-mediated transactivation assays were performed. For transactivation assays assessing RXR homodimer signaling, CV-1 cells were transfected with 1) an expression construct including a full length RXRα, RXRβ, or RXRγ; and 2) a rCRBPII/RXRE-tk-Luc reporter construct that included RXR homodimer-specific RXRE/DR1 responsive element linked to a luciferase gene. For transactivation assays assessing RAR/RXR heterodimer signaling, CV-1 cells were transfected with 1) an expression construct comprising a fusion protein including an estrogen receptor (ER) DNA binding domain linked to the ligand binding domain of RARα, RARβ, or RARγ and 2) a ERE-tk-Luc reporter construct that included an estrogen receptor responsive element linked to a luciferase gene. […] Data are mean values±SE from five independent experiments.

A further data set deals with EAE in B6 mice. The data set can be described thus: EAE dose titration in B6 mice with spleen and CNS flow analysis. Type of data set: in vivo. The procedure: A dose titration experiment was also conducted in EAE mice. EAE was induced in 28 B6 mice with MOG/CFA and PT as above. Mice were scored on day 7 as indicated above and divided into groups by score so means are as equal as possible.
At the completion of the experiment, the vehicle control and 200 μg/day groups were euthanized and spleen and CNS samples obtained.

Data set [3] has as its system focal demyelination of caudal cerebellar peduncles in rats. The data set can be described thus: Ethidium bromide focal demyelination in one year old rats. In kind it is in vivo. Particulars: IRX4204 10 mg/kg/day oral, thyroxine 20 ng/g s.c., day 7 to 21. The protocol:
The experiment uses rats of relatively advanced age (1 year) since such rats undergo remyelination in a less efficient manner, thereby providing data that are more relevant to the clinical treatment of human patients with multiple sclerosis or other demyelination disorders.
Focal demyelination is induced in one year old rats (approximately 300 g in weight) by injecting stereotactically 5 μl of ethidium bromide solution (0.01% vol/vol in saline) in a bilateral manner into the caudal cerebellar peduncles (CCP). […] The rats are killed on day 24 post-ethidium bromide treatment for analysis of remyelination by quantitative polymerase chain reaction (qPCR) and microscopy.

The target of the next data set is Nurr1/RXR heterodimer (Homo sapiens, UniProt P19793). As to the kind of experiment: Nurr1/RXR transactivation assay (COS 7 cells, NBRE-tk-luc). Particulars: Nurr-1 with or without RXRα. In kind it is cell-based. An excerpt:
(§1) For PPARγ: CV-1 cells were transfected with 3×(rAOX/DR1)-tk-Luc reporter gene and an expression vector for PPARγ. For FXR:CV-1 cells were transfected with 3×(IBABP/IRI)-tk-Luc reporter gene and vectors for FXR and RXRα. For LXR:CV-1 cells were transfected with 3×(PLTP/LXRE)-tk-Luc reporter gene with vectors for LXRα or LXRβ. For Nurr1: COS 7 cells were transfected with 3×NBRE-tk-luc reporter gene and full length Nurr-1 with or without full-length RXRα plasmid. […] Luciferase data were normalized to co-transfected β-gal activity. Luciferase activity was expressed as percent of maximal activity obtained using specific agonists. Rosiglitazone (PPARγ), GW4064 (FXR), T0901317 (LXR).

The next data set deals with LXRα/RXR. The data set can be described thus: LXRα/RXR transactivation assay (CV-1 cells). Type of data set: cell-based. As to conditions: 20 hr; relative to T0901317.
Excerpt: as §1

For data set [4], the system named is oligodendrocyte precursor cells (OPCs). The data set can be described thus: OPC differentiation into oligodendrocytes (PLP-EGFP, Example 7). As to conditions: compared to negative control (DMSO). In kind it is cell-based, mouse. An excerpt:
OPCs were generated from a neurosphere culture of E14.5 PLP-EGFP (on C57BL/6J background) mouse brains. […] The EGFP expressing cells were quantified with Cellomics Neuronal Profiling Algorithm.
The EGFP expressing cells in controls and all compounds were quantified with Cellomics Neuronal Profiling Algorithm.

For data set [5], the system named is cuprizone+rapamycin (CR) demyelination in C57BL/6J mice.
Excerpt: Animals (8 week-old male C57BL/6J mice) were subjected to cuprizone diet plus rapamycin injections (CR) for 6 weeks to induce demyelination. […] All animals were sacrificed after 6 weeks of CR to evaluate axonal integrity and microglial/macrophage activity in the white matter (corpus callosum, CC).
A total of 50 animals were included in the study, where 43 animals received CR demyelination for 6 weeks. During demyelination, a subset (n=7) of animals were kept on normal diet to serve as naïve age-matched controls.
To assess thyroid hormone levels, terminal blood draws were taken to quantify the levels of T4.
Data set [6] concerns cuprizone+rapamycin demyelination in C57BL/6J mice. As to the kind of experiment: Cuprizone/rapamycin 12-week demyelination, 6-week remyelination treatment. Type of data set: in vivo. An excerpt:
All animals were sacrificed after 12 weeks of CR or after further 6 weeks of treatment to evaluate myelin in white matter (corpus callosum) and gray matter (hippocampus and cortex). In addition, the size of myelinated axons was quantified and the large myelinated axons were further assessed by 3D-electron microscopy (3D-EM). A total of 40 animals were included in the study, where all 40 animals received CR demyelination for 12 weeks. After demyelination, a subset (n=10) of animals are sacrificed to serve as controls to assess baseline demyelination. […] Floating brain sections are immunostained with myelin prolipid protein (PLP) to visualize and quantify myelin in gray matter, hippocampus (FIG. 16A) and cortex (FIG. 16B).

The test system of the next data set is LXRβ/RXR. As to the kind of experiment: LXRβ/RXR transactivation assay (CV-1 cells). Type of data set: cell-based. Particulars: 20 hr; relative to T0901317.
Excerpt: as §1

Data set [7] relates to CNS infiltrating leukocytes in EAE C57BL/6 (B6) mice. The data set can be described thus: CNS infiltrating cells in EAE B6 mice (FACS). Particulars: day 20 after immunization, vs vehicle control. In kind it is in vivo. The protocol: To determine whether a RXR agonist can reduce central nervous system (CNS) infiltrating cells, C57BL/6 (B6) mice were treated as described in Example 6. On day 20 after immunization, mice were sacrificed and perfused with phosphate buffered saline (PBS). Brain and spinal cord tissue was isolated, digested with DNase and LIBERASE DL® (Roche Diagnostics, Indianapolis, Ind.) for 30 minutes, and homogenized through 70 micron nylon mesh filters. Resulting cells were placed over a Percoll gradient to remove myelin. The remaining cells (microglia and CNS infiltrating cells) were counted, stained for molecules of interest, and run on a flow cytometer. Based on the frequencies obtained by FACS of these cell populations, total cell numbers of CNS infiltrating leukocytes expressing CD45, including CD4^+ T cells and CD11c^+ CD11b^+ myeloid dendritic cells (DC), were calculated.

For another data set, the system named is EAE in SJL mice. The data set can be described thus: EAE in SJL mice (PLP peptide). Type of data set: in vivo. The procedure: To determine whether a RXR agonist can attenuate multiple sclerosis, SJL mice were immunized to induce EAE by s.c. injection at the base of their spine with 200 μL of adjuvant containing 200 μg proteolipid proteins (139-151) (PLP peptide; Peptides International, Louisville, Ky.) and 400 μg of non-viable M. tuberculosis H37 desiccate emulsified in a mixture of incomplete Freund's adjuvant and PBS. Mice were also given 150 ng of pertussis toxin in PBS i.p. on the same day as PLP emulsion injection and 2 days later. […] Mice were scored using the scale described in Example 3.

Setting [8] is: CNS, restimulation with PMA/Ionomycin, 200 μg/day vs vehicle.

SMILES strings stand for the structures. Entries after “also recorded” stand apart in the source; their conditions may differ.

Chain of Nurr1/RXR heterodimer (P43354 whole entry partner, one chain of several): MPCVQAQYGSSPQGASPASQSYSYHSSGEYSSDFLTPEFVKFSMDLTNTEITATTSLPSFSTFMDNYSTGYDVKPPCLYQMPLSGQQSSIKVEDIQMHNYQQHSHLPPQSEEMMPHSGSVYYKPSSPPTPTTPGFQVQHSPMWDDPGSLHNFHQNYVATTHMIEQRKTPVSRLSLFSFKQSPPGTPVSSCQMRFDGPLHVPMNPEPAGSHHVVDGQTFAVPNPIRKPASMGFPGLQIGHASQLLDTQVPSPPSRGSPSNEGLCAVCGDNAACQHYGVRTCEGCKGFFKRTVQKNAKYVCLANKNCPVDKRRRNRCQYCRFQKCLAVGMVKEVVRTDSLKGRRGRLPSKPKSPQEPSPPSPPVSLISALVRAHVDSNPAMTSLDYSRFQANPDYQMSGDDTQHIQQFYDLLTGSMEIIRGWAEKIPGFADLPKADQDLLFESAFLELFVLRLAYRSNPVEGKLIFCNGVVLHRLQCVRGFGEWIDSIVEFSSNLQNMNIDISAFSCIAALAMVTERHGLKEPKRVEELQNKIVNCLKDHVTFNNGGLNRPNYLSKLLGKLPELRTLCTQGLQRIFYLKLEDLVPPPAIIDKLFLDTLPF

With `N[C@@H](Cc1cc(I)c(Oc2ccc(O)c(I)c2)c(I)c1)C(=O)O` [Compound T3, triiodothyronine, reference compound], the “oligodendrocyte production (EGFP+ oligodendrocytes)” value in data set [1] is given as “clear dose-responses”.
For the molecule `CC(/C=C/[C@@H]1C[C@]1(C)c1ccc2c(c1)C(C)(C)CCC2(C)C)=C\C(=O)O` [IRX4204, 3,7-dimethyl-6(S),7(S)-methano,7-[1,1,4,4-tetramethyl-1,2,3,4-tetrahydronaphth-7-yl]2(E),4(E) heptadienoic acid], the “symptoms of EAE (disease severity score)” value in data set [2] was “significantly reduces the symptoms of EAE”. Further, at RXRα, the “more potent in activating RXR receptors rather than RAR receptors” value is > 1,000 fold. Also, in the data set on EAE in B6 mice (50 μg, 100 μg, or 200 μg every day from day 8, vs vehicle), the EAE disease overall entry is recorded as “significantly less disease overall”. Further, in the data set with EAE in B6 mice (CNS, 200 μg/day vs vehicle), the “Co-expression of IFNg and IL-17A by CD4 T cells in CNS” value is given as “not significantly different between groups”; the “total number of infiltrating CD4 T cells in the CNS” value is recorded as “reduced”. In the data set with EAE in B6 mice (setting [8]), the “IFNγ production by CNS infiltrating lymphocytes” value is recorded as “significantly reduced” and the “TNF production by CNS infiltrating lymphocytes” value is given as “significantly reduced”. In the data set with EAE in B6 mice (spleen, 200 μg/day vs vehicle), the “CCR6 expression on CD4 T cells” value is reported as “lowered CCR6”, the “CD4+ CD25hi cells (number)” value is “reduced”, the “CD4+ CD25hi cells frequency” value was “not altered” and the “CD49d expression on CD4 T cells” value is listed as “but not CD49d”. In the data set with EAE in B6 mice (spleen, 200 μg/day vs vehicle), the “total number of effector and memory CD4 T cells (CD44 expression)” value is “decreased”; the “total number of recently activated CD4 T cells (CD69 and CD44)” value was “also decreased”. Besides, the “oligodendrocyte production (EGFP+ oligodendrocytes)” value in data set [1] is recorded as “clear dose-responses”. Besides, in [3], the “Mbp expression (real-time qPCR of lesion samples)” value is recorded as “increase”, the “Pdgfra expression (real-time qPCR of lesion samples)” value is on record as “increase” and the “remyelinated axons (ultrastructural analyses of CCP lesions)” value is recorded as “more remyelinated axons than vehicle treatment”. Further, in data set [3] (vs vehicle), the “Nkx2.2+ oligodendrocyte precursor cells (OPCs) in lesions” value is “increased”, the “density of CC1+ differentiated oligodendrocytes in lesions” value is listed as “increased” and the “density of Olig2+ oligodendrocyte lineage cells in lesions” value is “increased”. On Nurr1/RXR heterodimer, the “activation of Nurr1/RXR heterodimer” value is “selectively activates the Nurr1/RXR permissive heterodimer; also recorded: selectively activates RXR-Nurr1 heterodimers”. Further, in the data set with LXRα/RXR, the “activation of LXRα/RXR” value is “not to transactivate; also recorded: does not activate”. Also, the “OPC differentiation into oligodendrocytes (number of EGFP positive cells)” value in data set [4] is listed as “significant increase; also recorded: dose dependent increase”. Also, in [5] (6 weeks concurrent treatment, vs vehicle), the “microglial/macrophage activation (Iba1 staining in CC)” value is listed as “no difference”. For the same molecule, the terminal body weights entry in [5] (ANOVA, vs vehicle) is listed as “no significant difference”. Besides, the “number of SMI32 positive axonal ovoids in the corpus callosum” value in data set [5] (IRX4204 10 mg/kg PO, T4 20 ng/g SQ daily for 6 weeks during CR, vs Vehicle, 10 mg/kg) is recorded as “trend towards decreased number of axonal ovoids but was not statistically different from the Vehicle; also recorded: trend towards decrease in axonal ovoids, but it was statistically not different from vehicle”. The “mortality during the in-life phase” value in data set [5] (mouse, in vivo) is “no mortality”. The “decrease in T4 levels compared to vehicle control animals” value in [5] (terminal blood draws) is ~50%. Moreover, in data set [6] (10 mg/kg PO daily for 6 weeks after 12 weeks CR), the body weight result is given as “no significant difference”. The “size of myelinated axons in the corpus callosum” value in data set [6] (6 weeks of treatment after 12 weeks CR) is “significantly increases; also recorded: shift in distribution to larger axon diameter”. Further, the “size of axons in the upper quartile” value in [6] (6 weeks of treatment, 3rd quartile, axons about 0.7 μm, P<0.0001) was “significant increase”. For the same molecule, the “activation of LXRβ/RXR” value in the data set with LXRβ/RXR is “not to transactivate; also recorded: does not activate”. For the same molecule, in data set [7], the “infiltration of CD4+ cells in to the CNS” value is “significant reduction” and the “infiltration of CD11c+ CD11b+ cells (myeloid DC) in to the CNS” value was “significant reduction”. Also, in the data set on EAE in SJL mice (50 μg i.p. every other day from day 7 to day 14), the “symptoms of EAE (disease severity score)” value is “significantly reduces the symptoms of EAE”. Moreover, in the data set with EAE in SJL mice (50 μg i.p. every other day, n=6), the “Death from Disease” value is 0/6.
